Data taken from patent US20120152149A1, “USE OF 1,3-DIOLS AS BIOCIDES” (BASF SE, priority 2009, published 2012).

Experiments:
Type in all cases: cell-based
E. coli ATCC 10536 = test: Suspension test EN 1040, bactericidal activity; conditions: 1000 ppm of active substance
Description: (§1) The bactericidal activity of the substances of this invention was carried out in a suspension test corresponding to the European standard EN 1040 and compared with the activities of customary commercial products. For this, only relatively small modifications were made. The substances of the formula (1) were dissolved in water or ethanol to give a 1% strength stock solution. For determining the bactericidal activities, the test mixtures were selected such that 1000 ppm of active substance was present in an aqueous solution. The procedure was the same with the comparison samples. For the results shown in table 2, the test mixtures were inoculated with the following bacterial strains such that the stated germ densities were present in the test mixtures. E. coli ATCC 10536 1−2×10^7 CFU/ml The test mixtures were incubated at room temperature (22° C.+/−2° C.). After defined contact times, aliquots of 1 ml were taken in order to determine the surviving germ count. For the deactivation of the microbicidal activity of the diols, the aliquots were diluted in 1:10 dilution steps in a solution of TS broth with 10% Tween, 3% lecithin, 0.1% histidines and 0.5% sodium thiosulfate and the 10^−2 and 10^−3 dilution stages were used for determining the surviving germ count. For this purpose, corresponding aliquots were plated out on Caso medium with inhibitor (Merck) and incubated at 37° C. for 24 h. The ascertained surviving germ counts were in each case compared with a mixture containing water (water control) by determining the logarithmic reduction in the surviving germ counts based on the water control.

S. aureus ATCC 6538 [1] = test: Suspension test EN 1040, bactericidal activity; conditions: 1000 ppm of active substance
Description: as §1, with “S. aureus” for “E. coli”, “6538” for “10536”

A. niger ATCC 6275 = test: Suspension test EN 1275, fungicidal activity against molds; conditions: 1% active substance in the test
P. aeruginosa ATCC 15442 = test: Preservation stress test, example formulation 2 (roll-on deodorant formulation); conditions: 1% active substance
S. aureus ATCC 6538 [2] = test: as above; conditions: 1% active substance
[3] = test system: E. coli ATCC 10536, S. aureus ATCC 6538, P. aeruginosa ATCC 15442; test: Preservation stress test, example formulation 1 (standard emulsion O/W), bacteria together; conditions: 1% active substance, P. aeruginosa (one time series)
Description: Preservation stress tests (PSTs) were carried out in order to determine the preserving activity of the diols. In the preservation stress test, this is simulated through artificial loadings with microorganisms. These can either be inoculated as mixed population or individually in mixtures independent of one another. The inoculated product samples are incubated under defined conditions and, after defined times, samples are taken in order to determine the germ loading. In the case of adequate preservation, the number of microorganisms should, depending on the type, either decrease or remain constant in order to satisfy the requirements specified, e.g. in Ph. Eur. 6.0. To investigate the preserving effect of the diols, application-typical amounts of the diols were incorporated into example formulations. […] [table] These example formulations were used to prepare various mixtures which each comprised 1% active substance or comprised water instead of the active substance as placebo mixtures. These mixtures were in each case inoculated with the test germs such that a germ loading of 10^5-10^6 CFU/g was present in the test mixture. The bacteria were either used individually for the inoculation or as a mixed culture. To determine the starting germ count, immediately after inoculation, an aliquot was taken, diluted in dilution medium (phosphate buffer, 0.07 molar pH 7.4 (+/−0.2), with 1% Tween 80+0.3% soya lecithin), and the surviving germ count was determined in the dilution stages 10^−1 to 10^−3. The inoculated product samples then incubated for a total of 28 d at 20-25° C. After 2 d, 7 d, 14 d and after 28 d, aliquots were taken and diluted in dilution medium (phosphate buffer, 0.07 molar pH 7.4 (+/−0.2), with 1% Tween 80+0.3% soya lecithin). The surviving germ counts were determined in the dilution stages 10^−1 to 10^−4. The reference point taken for determining the reduction in germ count was the respective initial value of the sample. The results were given as logarithmic reductions.

Measured: Microbicidal activity given as logarithmic reduction in germ count

CCCC(O)CO (stereo not drawn) [1,2-Pentanediol, 1,2-pentanediol, reference compound]
1 log. Red.: S. aureus ATCC 6538 [2]; 48 h | S. aureus ATCC 6538 [2]; 7 d
<1 log. red.: E. coli ATCC 10536; contact time 5 min | E. coli ATCC 10536; contact time 30 min | E. coli ATCC 10536; contact time 24 h | S. aureus ATCC 6538 [1]; contact time 5 min | S. aureus ATCC 6538 [1]; contact time 30 min | S. aureus ATCC 6538 [1]; contact time 24 h | A. niger ATCC 6275; contact time 24 h | A. niger ATCC 6275; contact time 7 d
3 log. Red.: P. aeruginosa ATCC 15442; 7 d
0 log. Red.: P. aeruginosa ATCC 15442; 48 h
5 log. Red.: P. aeruginosa ATCC 15442; 14 d | S. aureus ATCC 6538 [2]; 14 d

OCC1(CO)CC2CCC1C2 (stereo not drawn) [2,2-DMNB, 2,2-dimethylolnorbornane]
5 log. Red.: [3]; 7 d | [3]; 14 d | [3]; 28 d | P. aeruginosa ATCC 15442; 7 d | P. aeruginosa ATCC 15442; 14 d | P. aeruginosa ATCC 15442; 28 d | S. aureus ATCC 6538 [2]; 7 d | S. aureus ATCC 6538 [2]; 14 d | S. aureus ATCC 6538 [2]; 28 d
≧3 log. Red.: [3]; 48 h | S. aureus ATCC 6538 [2]; 48 h
3 log. Red.: P. aeruginosa ATCC 15442; 48 h

OCC1(CO)CCCC1 [DMCP, 1,1-dimethylolcyclopentane]
5 log. Red.: [3]; 7 d | [3]; 14 d | [3]; 28 d | P. aeruginosa ATCC 15442; 14 d | P. aeruginosa ATCC 15442; 28 d | S. aureus ATCC 6538 [2]; 7 d | S. aureus ATCC 6538 [2]; 14 d | S. aureus ATCC 6538 [2]; 28 d
1 log. Red.: P. aeruginosa ATCC 15442; 48 h
3 log. Red.: [3]; 48 h
≧3 log. Red.: P. aeruginosa ATCC 15442; 7 d | S. aureus ATCC 6538 [2]; 48 h

CC(C)C(C)(CO)CO [IMPD, 2-isopropyl-2-methylpropane-1,3-diol]
1 log. Red.: P. aeruginosa ATCC 15442; 48 h
≧3 log. Red.: [3]; 48 h | P. aeruginosa ATCC 15442; 7 d | S. aureus ATCC 6538 [2]; 48 h
5 log. Red.: [3]; 7 d | [3]; 14 d | [3]; 28 d | P. aeruginosa ATCC 15442; 14 d | P. aeruginosa ATCC 15442; 28 d | S. aureus ATCC 6538 [2]; 7 d | S. aureus ATCC 6538 [2]; 14 d | S. aureus ATCC 6538 [2]; 28 d

CCCCCCCCC(C)(CO)CO [OMPD, 2-octyl-2-methylpropane-1,3-diol]
≧3 log. Red.: [3]; 48 h | P. aeruginosa ATCC 15442; 48 h | S. aureus ATCC 6538 [2]; 48 h
2.6 log. red.: A. niger ATCC 6275; contact time 7 d
<1 log. red.: S. aureus ATCC 6538 [1]; contact time 5 min | A. niger ATCC 6275; contact time 24 h
5 log. Red.: [3]; 7 d | [3]; 14 d | [3]; 28 d | P. aeruginosa ATCC 15442; 7 d | P. aeruginosa ATCC 15442; 14 d | P. aeruginosa ATCC 15442; 28 d | S. aureus ATCC 6538 [2]; 7 d | S. aureus ATCC 6538 [2]; 14 d | S. aureus ATCC 6538 [2]; 28 d
4.8 log. red.: S. aureus ATCC 6538 [1]; contact time 30 min
>5 log. red.: E. coli ATCC 10536; contact time 5 min | E. coli ATCC 10536; contact time 30 min | E. coli ATCC 10536; contact time 24 h | S. aureus ATCC 6538 [1]; contact time 24 h

CCCCCC(CO)(CO)CCC [PPPD, 2-pentyl-2-propylpropane-1,3-diol]
2.9 log. red.: A. niger ATCC 6275; contact time 24 h
>4 log. red.: A. niger ATCC 6275; contact time 7 d
5 log. Red.: [3]; 7 d | [3]; 14 d | [3]; 28 d | P. aeruginosa ATCC 15442; 48 h | P. aeruginosa ATCC 15442; 7 d | P. aeruginosa ATCC 15442; 14 d | P. aeruginosa ATCC 15442; 28 d | S. aureus ATCC 6538 [2]; 48 h | S. aureus ATCC 6538 [2]; 7 d | S. aureus ATCC 6538 [2]; 14 d | S. aureus ATCC 6538 [2]; 28 d
>5 log. red.: E. coli ATCC 10536; contact time 5 min | E. coli ATCC 10536; contact time 30 min | E. coli ATCC 10536; contact time 24 h | S. aureus ATCC 6538 [1]; contact time 24 h
1.5 log. red.: S. aureus ATCC 6538 [1]; contact time 30 min
<1 log. red.: S. aureus ATCC 6538 [1]; contact time 5 min
≧3 log. Red.: [3]; 48 h
